Experimental data as given in EP4620956A1, “PARP1 INHIBITORS” (Zhejiang Yangli Pharmaceutical Technology Co., Ltd., priority 2022, dated 2024).

What was measured:
[1] = biological target: T1, PARP2 (Homo sapiens, UniProt Q9UGN5); assay: Inhibition of PARP2 enzyme activity (chemiluminescence); format: biochemical
T1 construct: purchased BPS 80502

[2] = biological target: T2, PARP1 (Homo sapiens, UniProt P09874); assay: DNA trapping capability of PARP1 (HTRF); format: biochemical
T2 construct: purchased BPS 80501

[3] = biological target: T3, PARP6 (Homo sapiens, UniProt Q2NL67); assay: Inhibition of PARP6 enzyme activity (chemiluminescence); format: biochemical
T3 construct: purchased BPS 80506

[4] = test system: MDA-MB-436; assay: Anti-proliferative activity (CellTiter-Glo, 7 days), MDA-MB-436; format: cell-based, human
[5] = biological target: T1, PARP2; assay: DNA trapping capability of PARP2 (HTRF); format: biochemical
[6] = biological target: T4, PARP3 (Homo sapiens, UniProt Q9Y6F1); assay: Inhibition of PARP3 enzyme activity (chemiluminescence); format: biochemical
T4 construct: purchased BPS 80503
T4 sequence (Q9Y6F1 1-533): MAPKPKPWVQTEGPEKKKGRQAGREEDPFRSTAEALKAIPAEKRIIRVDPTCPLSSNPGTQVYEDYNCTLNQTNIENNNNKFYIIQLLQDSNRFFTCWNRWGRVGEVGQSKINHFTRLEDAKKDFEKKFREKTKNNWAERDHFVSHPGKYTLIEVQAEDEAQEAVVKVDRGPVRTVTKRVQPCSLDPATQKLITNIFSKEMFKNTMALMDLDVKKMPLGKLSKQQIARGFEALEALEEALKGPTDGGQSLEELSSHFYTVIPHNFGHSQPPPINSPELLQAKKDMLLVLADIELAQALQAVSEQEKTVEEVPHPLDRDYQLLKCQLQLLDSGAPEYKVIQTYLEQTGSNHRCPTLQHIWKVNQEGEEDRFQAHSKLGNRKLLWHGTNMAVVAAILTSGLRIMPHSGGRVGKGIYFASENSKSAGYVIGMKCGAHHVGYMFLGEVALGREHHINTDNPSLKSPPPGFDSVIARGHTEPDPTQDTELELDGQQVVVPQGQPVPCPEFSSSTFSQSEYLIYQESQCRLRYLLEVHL

[7] = biological target: T2, PARP1; assay: Inhibition of PARP1 enzyme activity (chemiluminescence); format: biochemical
[8] = biological target: T5, PARP11 (Homo sapiens, UniProt Q9NR21); assay: Inhibition of PARP11 enzyme activity (chemiluminescent assay kit); format: biochemical
T5 construct: purchased BPS 80511
T5 sequence (Q9NR21 1-338): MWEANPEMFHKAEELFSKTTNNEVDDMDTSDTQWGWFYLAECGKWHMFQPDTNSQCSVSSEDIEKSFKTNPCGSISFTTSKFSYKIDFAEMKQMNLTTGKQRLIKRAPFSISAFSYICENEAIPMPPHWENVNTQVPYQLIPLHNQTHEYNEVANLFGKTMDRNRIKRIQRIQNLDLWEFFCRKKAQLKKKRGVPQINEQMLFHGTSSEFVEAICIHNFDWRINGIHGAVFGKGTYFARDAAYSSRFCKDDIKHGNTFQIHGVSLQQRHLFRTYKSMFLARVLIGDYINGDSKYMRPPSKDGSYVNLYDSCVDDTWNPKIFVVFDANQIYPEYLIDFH

[9] = test system: DLD-1 BRCA2^-/-; assay: Anti-proliferative activity (CellTiter-Glo, 7 days), DLD-1 BRCA2-/-; format: cell-based, human
[10] = biological target: T6, PARP7 (Homo sapiens, UniProt Q7Z3E1); assay: Inhibition of PARP7 enzyme activity (chemiluminescent assay kit); format: biochemical
T6 construct: purchased BPS 80527
T6 sequence (Q7Z3E1 1-657): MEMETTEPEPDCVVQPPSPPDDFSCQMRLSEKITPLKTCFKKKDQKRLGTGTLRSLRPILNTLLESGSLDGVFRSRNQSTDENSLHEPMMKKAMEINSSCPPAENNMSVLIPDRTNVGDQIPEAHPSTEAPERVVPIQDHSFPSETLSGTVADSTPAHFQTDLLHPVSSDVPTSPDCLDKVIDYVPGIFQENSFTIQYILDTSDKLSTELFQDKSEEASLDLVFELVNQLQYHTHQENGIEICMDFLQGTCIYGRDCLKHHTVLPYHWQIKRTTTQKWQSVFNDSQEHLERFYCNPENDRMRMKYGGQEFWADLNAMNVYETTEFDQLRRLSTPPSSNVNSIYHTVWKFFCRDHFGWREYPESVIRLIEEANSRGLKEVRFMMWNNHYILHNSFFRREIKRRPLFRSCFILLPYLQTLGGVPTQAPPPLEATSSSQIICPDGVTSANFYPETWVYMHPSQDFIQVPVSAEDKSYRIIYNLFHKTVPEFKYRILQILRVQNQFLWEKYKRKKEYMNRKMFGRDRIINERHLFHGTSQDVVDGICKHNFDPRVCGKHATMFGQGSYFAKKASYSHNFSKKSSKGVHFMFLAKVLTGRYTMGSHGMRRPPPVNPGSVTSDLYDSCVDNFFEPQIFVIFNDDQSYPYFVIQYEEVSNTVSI

[11] = ratio relative to the PARP1 enzyme activity

T2 sequence (P09874 whole entry): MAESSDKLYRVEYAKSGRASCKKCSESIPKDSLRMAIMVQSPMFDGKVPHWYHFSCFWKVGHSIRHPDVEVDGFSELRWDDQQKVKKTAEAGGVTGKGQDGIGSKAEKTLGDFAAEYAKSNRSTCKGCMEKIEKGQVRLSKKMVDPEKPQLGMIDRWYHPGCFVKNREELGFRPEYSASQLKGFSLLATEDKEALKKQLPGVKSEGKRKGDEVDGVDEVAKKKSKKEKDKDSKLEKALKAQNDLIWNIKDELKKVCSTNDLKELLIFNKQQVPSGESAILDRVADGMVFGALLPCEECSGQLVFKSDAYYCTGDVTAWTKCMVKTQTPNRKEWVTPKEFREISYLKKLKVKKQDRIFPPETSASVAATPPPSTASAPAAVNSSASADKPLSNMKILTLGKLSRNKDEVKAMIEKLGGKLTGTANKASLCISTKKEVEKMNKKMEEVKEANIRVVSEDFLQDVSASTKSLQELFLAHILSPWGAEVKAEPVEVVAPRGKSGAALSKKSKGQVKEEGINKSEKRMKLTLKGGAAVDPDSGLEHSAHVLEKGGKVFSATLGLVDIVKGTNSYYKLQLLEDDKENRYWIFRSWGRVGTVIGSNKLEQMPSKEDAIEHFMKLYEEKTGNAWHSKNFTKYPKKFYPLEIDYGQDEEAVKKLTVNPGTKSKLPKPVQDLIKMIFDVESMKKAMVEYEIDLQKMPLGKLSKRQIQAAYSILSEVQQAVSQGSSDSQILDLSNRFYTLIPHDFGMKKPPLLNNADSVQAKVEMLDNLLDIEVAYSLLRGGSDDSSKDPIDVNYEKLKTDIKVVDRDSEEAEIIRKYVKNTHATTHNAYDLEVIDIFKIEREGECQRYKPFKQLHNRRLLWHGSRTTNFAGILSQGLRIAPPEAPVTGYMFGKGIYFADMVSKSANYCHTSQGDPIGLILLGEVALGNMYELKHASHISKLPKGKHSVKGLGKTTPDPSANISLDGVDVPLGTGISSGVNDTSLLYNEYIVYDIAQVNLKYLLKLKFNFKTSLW
T3 sequence (Q2NL67 whole entry): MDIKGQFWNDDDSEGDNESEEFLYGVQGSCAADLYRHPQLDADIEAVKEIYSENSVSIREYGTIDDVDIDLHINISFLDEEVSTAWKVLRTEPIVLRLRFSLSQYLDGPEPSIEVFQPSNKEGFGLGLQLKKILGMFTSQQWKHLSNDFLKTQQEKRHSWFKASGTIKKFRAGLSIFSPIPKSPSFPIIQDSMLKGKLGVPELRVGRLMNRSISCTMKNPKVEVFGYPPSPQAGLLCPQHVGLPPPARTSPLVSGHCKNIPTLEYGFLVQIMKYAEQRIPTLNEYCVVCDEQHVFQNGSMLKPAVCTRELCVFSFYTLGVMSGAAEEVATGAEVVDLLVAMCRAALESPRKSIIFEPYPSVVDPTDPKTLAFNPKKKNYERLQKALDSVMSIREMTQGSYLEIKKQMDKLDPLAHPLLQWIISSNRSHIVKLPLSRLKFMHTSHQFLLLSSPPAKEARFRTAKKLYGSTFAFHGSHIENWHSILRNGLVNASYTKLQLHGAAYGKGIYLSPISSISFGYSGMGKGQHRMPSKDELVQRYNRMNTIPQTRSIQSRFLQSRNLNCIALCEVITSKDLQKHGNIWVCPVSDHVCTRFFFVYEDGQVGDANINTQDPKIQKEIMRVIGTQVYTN
T1 sequence (Q9UGN5 whole entry): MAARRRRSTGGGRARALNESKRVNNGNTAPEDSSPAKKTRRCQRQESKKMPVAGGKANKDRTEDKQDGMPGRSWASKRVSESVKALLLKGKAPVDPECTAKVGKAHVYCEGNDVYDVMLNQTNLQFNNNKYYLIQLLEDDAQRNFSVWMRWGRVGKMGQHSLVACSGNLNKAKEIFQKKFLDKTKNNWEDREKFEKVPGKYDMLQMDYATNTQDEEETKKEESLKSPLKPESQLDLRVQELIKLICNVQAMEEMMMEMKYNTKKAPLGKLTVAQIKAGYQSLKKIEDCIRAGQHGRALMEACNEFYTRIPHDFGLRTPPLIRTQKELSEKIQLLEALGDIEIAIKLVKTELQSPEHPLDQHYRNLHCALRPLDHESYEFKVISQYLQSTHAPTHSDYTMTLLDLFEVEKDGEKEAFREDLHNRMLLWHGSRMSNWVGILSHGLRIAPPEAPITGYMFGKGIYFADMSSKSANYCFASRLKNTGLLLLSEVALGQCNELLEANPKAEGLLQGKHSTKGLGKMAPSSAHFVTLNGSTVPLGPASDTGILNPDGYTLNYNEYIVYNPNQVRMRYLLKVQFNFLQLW

[2H]C([2H])([2H])NC(=O)c1ccc(N2CCN(Cc3cnc4c(N)c(CC)c(=O)[nH]c4c3)CC2)c(F)n1 [Example 4, 5-(4-((8-Amino-7-ethyl-6-oxo-5,6-dihydro-1,5-naphthyridin-3-yl)methyl)piperazin-1-yl)-6-fluoro-N-(methyl-d3)picolinamide]
IC50 [1]: 18.6 nM | EC50 [2]: 3.8 nM | IC50 ([3]; enzyme activity): > 10000 nM | PARP6 multiple vs PARP1 [3, 11]: ∞ | IC50 ([4]; Homo sapiens, MDA-MB-436, 168 h, BRCA1-mutated, 7 days, read-out: MDA-MB-436 IC50): 1.93 nM | BRCA1 mutation/WT selectivity fold ([4]; MDA-MB-231 vs MDA-MB-436): >5,181 fold | EC50 [5]: 382 nM | IC50 ([6]; enzyme activity): 7650 nM | PARP3 multiple vs PARP1 [6, 11]: 15,929 | IC50 [7]: 0.48 nM | PARP1/2 selectivity fold ([7]; PARP2 vs PARP1): 39 fold | IC50 ([8]; enzyme activity): 422 nM | PARP11 multiple vs PARP1 [8, 11]: 880 | BRCA2 mutation/WT selectivity fold ([9]; DLD-1 WT vs DLD-1 BRCA2^-/-): >2,178 fold | IC50 ([9]; Homo sapiens, DLD-1, 168 h, BRCA2-mutated, 7 days): 4.59 nM | IC50 ([10]; enzyme activity): > 10000 nM | PARP7 multiple vs PARP1 [10, 11]: ∞
